Activity calls are given as the source filed them. The calls are words filed in the database; no cut-off is given here.
test system: Mus musculus; test: Anticonvulsant activity in Mus musculus Kunming (mouse) assessed as protection against maximal electroshock-induced seizure at 100 mg/kg, ip administered 30 min prior to testing; format: functional, organism-based; design: dose 100 mg/kg; conditions: not given

Row | SMILES | Activity
1 | Clc1ccc(COc2cccc3c2cnc2ncnn23)c(Cl)c1 | inactive
2 | N#Cc1ccc(COc2cccc3c2cnc2ncnn23)cc1 | inactive
3 | Clc1cccc(COc2cccc3c2cnc2ncnn23)c1 | inactive
4 | N#Cc1ccccc1COc1cccc2c1cnc1ncnn12 | inactive
5 | CCCCCCOc1cccc2c1cnc1ncnn12 | inactive
6 | CCCCCCCCOc1cccc2c1cnc1ncnn12 | inactive
7 | Cc1ccc(COc2cccc3c2cnc2ncnn23)cc1 | inactive
8 | Clc1ccc(COc2cccc3c2cnc2ncnn23)cc1 | inactive
9 | CCCCCCCCCCOc1cccc2c1cnc1ncnn12 | inactive
10 | COc1ccc(COc2cccc3c2cnc2ncnn23)cc1 | inactive
11 | Fc1ccccc1COc1cccc2c1cnc1ncnn12 | inactive
12 | c1ccc(COc2cccc3c2cnc2ncnn23)cc1 | Active
13 | Clc1ccccc1COc1cccc2c1cnc1ncnn12 | inactive
14 | Fc1cccc(COc2cccc3c2cnc2ncnn23)c1 | inactive
15 | Brc1ccccc1COc1cccc2c1cnc1ncnn12 | inactive
16 | CCCCCCCOc1cccc2c1cnc1ncnn12 | inactive
17 | CCCCOc1cccc2c1cnc1ncnn12 | inactive
18 | CCCCCOc1cccc2c1cnc1ncnn12 | Active
19 | Fc1ccc(COc2cccc3c2cnc2ncnn23)cc1 | inactive

test system: not listed separately; test: Neurotoxicity against ip dosed Mus musculus Kunming (mouse) assessed as inability to maintain equilibrium on rod measured for 1 min by rota rod test; format: toxicity, organism-based; conditions: in vivo

Row | SMILES | TD50 at 1 min
20 | c1ccc(COc2cccc3c2cnc2ncnn23)cc1 | 710 mg/kg
21 | NC(=O)N1c2ccccc2C=Cc2ccccc21 [CARBAMAZEPINE] | 76.1 mg/kg

test system: not listed separately; test: Protective index, ratio of TD50 for neurotoxicity to ED50 for anticonvulsant activity in Mus musculus Kunming (mouse); format: toxicity, organism-based; conditions: in vivo, read-out: Ratio TD50/ED50

Row | SMILES | selectivity ratio
22 | c1ccc(COc2cccc3c2cnc2ncnn23)cc1 | 9

test system: Mus musculus; test: Anticonvulsant activity in ip dosed Mus musculus Kunming (mouse) assessed as protection against maximal electroshock-induced seizure administered 30 min prior to testing; format: functional; conditions: not given

Row | SMILES | ED50
23 | c1ccc(COc2cccc3c2cnc2ncnn23)cc1 | 78.9 mg/kg
24 | NC(=O)N1c2ccccc2C=Cc2ccccc21 [CARBAMAZEPINE] | 11.8 mg/kg
